Paper PMC11678491, “Bis-Iridoid Glycosides and Triterpenoids from Kolkwitzia amabilis and Their Potential as Inhibitors of ACC1 and ACL” (Molecules, 2024)
Like-named read-outs stand apart in the source and are kept apart here.

Assays:
[1] = molecular target: acetyl CoA carboxylase 1 (ACC1) (Homo sapiens, UniProt Q13085); assay: ACC1 inhibitory assay (ADP-Glo luminescence); format: biochemical
Method: (§1) The ACC1 and ACL inhibitory activity assay were conducted using ADP-Glo^TM luminescence assay reagents (Promega Biotech Co., Ltd, Beijing, China), which measure ACC1 or ACL activity by quantifying the amount of ADP generated in the enzymatic reaction. […] Reactions were conducted in each well for 30 min at room temperature. Following this, 2.0 μL of ATP was added to each well, and the mixture was incubated for 1 h at room temperature. Negative control wells, which lacked the protein kinase, substrate, and ATP, were also included in the kinase assay. After the enzymatic reaction, 2.5 μL of ADP-Glo reagent was added to each well to terminate the kinase reaction and deplete any unconsumed ATP within 1 h at room temperature. Finally, 5.0 μL of kinase detection reagent was added to each well and incubated for 1 h to convert ADP to ATP. The luminescence signal was measured using a PerkinElmer EnVision reader.

[2] = molecular target: T1, ATP-citrate lyase (ACL) (Homo sapiens, UniProt P53396); assay: ACL inhibitory assay (ADP-Glo luminescence); format: biochemical
T1 sequence (P53396 1-1101): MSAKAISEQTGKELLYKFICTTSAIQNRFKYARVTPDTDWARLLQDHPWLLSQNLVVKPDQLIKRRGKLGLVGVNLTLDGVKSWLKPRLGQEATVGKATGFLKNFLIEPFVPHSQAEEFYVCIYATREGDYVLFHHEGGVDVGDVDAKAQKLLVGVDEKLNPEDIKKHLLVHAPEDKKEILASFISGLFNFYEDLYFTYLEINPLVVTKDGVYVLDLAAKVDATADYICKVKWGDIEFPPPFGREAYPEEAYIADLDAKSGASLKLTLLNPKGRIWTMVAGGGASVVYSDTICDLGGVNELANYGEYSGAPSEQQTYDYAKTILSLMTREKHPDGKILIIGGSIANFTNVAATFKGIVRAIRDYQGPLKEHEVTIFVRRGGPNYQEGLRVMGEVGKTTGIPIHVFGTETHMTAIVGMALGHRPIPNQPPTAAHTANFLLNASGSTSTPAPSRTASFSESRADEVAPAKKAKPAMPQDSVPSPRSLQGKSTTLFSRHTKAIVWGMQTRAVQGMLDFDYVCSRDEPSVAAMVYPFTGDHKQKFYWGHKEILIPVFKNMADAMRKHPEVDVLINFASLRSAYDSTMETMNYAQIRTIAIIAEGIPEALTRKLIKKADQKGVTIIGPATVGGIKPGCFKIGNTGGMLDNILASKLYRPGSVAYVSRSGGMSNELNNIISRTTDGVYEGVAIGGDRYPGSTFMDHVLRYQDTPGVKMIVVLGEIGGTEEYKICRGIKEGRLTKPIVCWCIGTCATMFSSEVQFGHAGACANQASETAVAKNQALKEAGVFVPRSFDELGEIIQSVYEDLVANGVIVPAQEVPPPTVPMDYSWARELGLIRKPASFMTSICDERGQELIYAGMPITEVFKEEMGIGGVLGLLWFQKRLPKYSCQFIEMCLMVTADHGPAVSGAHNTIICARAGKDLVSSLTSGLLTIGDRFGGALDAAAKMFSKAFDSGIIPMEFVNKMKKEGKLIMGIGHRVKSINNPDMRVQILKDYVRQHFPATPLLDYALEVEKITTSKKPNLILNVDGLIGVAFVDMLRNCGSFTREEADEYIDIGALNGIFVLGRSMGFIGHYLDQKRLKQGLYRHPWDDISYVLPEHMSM
Method: as §1

[3] = mean ± SEM of triplicated experiments, read-out: IC50 ACC1
[4] = Figure 5, mean ± standard deviation (SD) (n = 3)
[5] = mean ± SEM of triplicated experiments
[6] = Figure 5, mean ± standard deviation (SD) (n = 3), read-out: IC50 (ACC1)

Structure (SMILES) | IC50 [1, 3] | IC50 [2, 4] | IC50 [2, 5] | IC50 [1, 6] | IC50 [1]
C=C[C@H]1[C@H](O[C@@H]2O[C@H](CO)[C@@H](O)[C@H](O)[C@H]2O)OC=C(C(=O)O[C@H]2C[C@@H]3C(C(=O)OC)=CO[C@@H](O)[C@@H]3[C@@H]2C)[C@H]1CC(OC)OC [Compound 8, lonicejaposide C] | > 20 µM | 3.63 ± 0.91 µM | 3.6 ± 0.9 µM |  | 
C=C[C@H]1[C@H](O[C@@H]2O[C@H](CO)[C@@H](O)[C@H](O)[C@H]2O)OC=C(C(=O)O[C@H]2C[C@@H]3C(C(=O)OC)=CO[C@@H](O[C@@H]4O[C@H](CO)[C@@H](O)[C@H](OC(=O)/C=C/c5ccc(O)c(O)c5)[C@H]4O)[C@@H]3[C@@H]2C)[C@H]1CC(OC)OC [Compound 2, Amabilioside B] | 9.6 ± 1 µM |  |  | 9.64 ± 0.99 µM | 
CC(=O)O[C@H]1CC[C@]2(C)[C@H]3CC=C4[C@@H]5[C@@H](C)[C@H](C)CC[C@]5(C(=O)O)CC[C@@]4(C)[C@]3(C)CC[C@H]2C1(C)C [Compound 17, 3β-acetyl-ursolic acid] | 10.3 ± 0.8 µM |  | 2 ± 0.5 µM | 10.3 ± 0.78 µM | 
COc1ccc(-c2ccccc2)cc1NS(=O)(=O)c1cc(Cl)cc(Cl)c1O [BMS 303141, reference compound] |  |  | 0.3 ± 0.1 µM |  | 

More lines, now with the values ahead:

IC50 [1, 3] | IC50 [2, 4] | IC50 [2, 5] | IC50 [1, 6] | IC50 [1] | Structure (SMILES)
> 20 µM | 4.69 ± 1.3 µM | 4.7 ± 1.3 µM |  |  | CC1(C)CC[C@]2(C(=O)O)CC[C@]3(C)C(=CC[C@@H]4[C@@]5(C)CC[C@H](O)[C@@](C)(COC(=O)/C=C/c6ccc(O)cc6)[C@@H]5CC[C@]43C)[C@@H]2C1 [Compound 31, (23E)-coumaroylhederagenin]
 |  |  |  | 0.002 ± 0.0001 µM | COc1ccccc1[C@H](Cn1c(=O)n(C(C)(C)C(=O)O)c(=O)c2c(C)c(-c3ncco3)sc21)OC1CCOCC1 [ND 630, Firsocostat, reference compound]
